Where “and” joins values, the source holds several entries; their conditions need not be identical. Equal entries are not always repeated. Toxic doses and inconclusive results are not listed. How the source made its calls: active means survival T/C of 150% or more; inactive means T/C below 125% in these data.
Test system: CD2F1 mice, intracerebral P388 leukemia, median survival T/C%
Test: NCI In Vivo Anticancer Drug Screen. Data for tumor model P388 Leukemia (intracerebral) in CD2F1 (CDF1) mice
Conditions: endpoint: median survival time, higher = longer survival
Procedure: The antitumor activity of compounds was measured in mice bearing transplantable tumors. Survival or tumor size were measured and the results are expressed as the measurement made in the treated group (T) divided by the measurement made in the vehicle treated control group (C). The tumor model used in this assay is P388 Leukemia (intracerebral) in CD2F1 (CDF1) mice

[1] = dose: 50.0 mg/kg/injection, schedule: Q01DX009 (ip), vehicle: saline with Tween-80
[2] = dose: 100.0 mg/kg/injection, schedule: Q01DX009 (ip), vehicle: saline with Tween-80
[3] = dose: 12.5 mg/kg/injection, schedule: Q04DX003 (ip), vehicle: saline
[4] = dose: 25.0 mg/kg/injection, schedule: Q04DX003 (ip), vehicle: saline

Measured: T/C

CC1(C)N=C(N)N=C(N)N1c1ccc(CCCCc2ccc(S(=O)(=O)F)cc2Cl)c(Cl)c1
inactive: dose: 12.5 mg/kg/injection, schedule: Q01DX009 (ip), vehicle: saline with Tween-80 97 % of control | [1] 116 % of control | [2] 96 % of control | dose: 133.0 mg/kg/injection, schedule: Q04DX003 (ip), vehicle: saline with Tween-80 102 % of control | dose: 200.0 mg/kg/injection, schedule: Q04DX003 (ip), vehicle: saline with Tween-80 108 % of control | dose: 300.0 mg/kg/injection, schedule: Q04DX003 (ip), vehicle: saline with Tween-80 95 % of control

COc1cccc2c1C(=O)c1c(O)c3c(c(O)c1C2=O)CC(O)(C(=O)CO)CC3OC1CC(N)C(O)C(C)O1 (stereo unspecified)
inactive: dose: 0.78 mg/kg/injection, schedule: Q04DX003 (ip), vehicle: saline 107 % of control | dose: 1.56 mg/kg/injection, schedule: Q04DX003 (ip), vehicle: saline 98 % of control | dose: 3.12 mg/kg/injection, schedule: Q04DX003 (ip), vehicle: saline 106 % of control | dose: 3.75 mg/kg/injection, schedule: Q04DX003 (ip), vehicle: clinical formulation 100 % of control | dose: 3.75 mg/kg/injection, schedule: Q04DX003 (iv), vehicle: clinical formulation 100 % of control | dose: 6.25 mg/kg/injection, schedule: Q04DX003 (ip), vehicle: saline 97 % of control | dose: 7.5 mg/kg/injection, schedule: Q04DX003 (ip), vehicle: clinical formulation 103 % of control | dose: 7.5 mg/kg/injection, schedule: Q04DX003 (iv), vehicle: clinical formulation 99 % of control | [3] 103 % of control | dose: 15.0 mg/kg/injection, schedule: Q04DX003 (ip), vehicle: clinical formulation 100 % of control | dose: 15.0 mg/kg/injection, schedule: Q04DX003 (iv), vehicle: clinical formulation 106 % of control | [4] 91 % of control | dose: 30.0 mg/kg/injection, schedule: Q04DX003 (iv), vehicle: clinical formulation 90 % of control

COc1ccc(CC2C(=O)NC(C)C(=O)N(C)C3C(=O)N(C)C(Cc4ccc(O)c(c4)Oc4ccc(cc4)C3O)C(=O)NC(C)C(=O)NC(C)C(=O)N2C)cc1 (stereo unspecified)
inactive: dose: 0.12 mg/kg/injection, schedule: Q01DX009 (ip), vehicle: Klucel (hydroxypropylcellulose) (HPC) 91 % of control and 98 % of control | dose: 0.13 mg/kg/injection, schedule: Q01DX009 (ip), vehicle: saline 104 % of control and 108 % of control | dose: 0.25 mg/kg/injection, schedule: Q01DX009 (ip), vehicle: Klucel (hydroxypropylcellulose) (HPC) 100 % of control and 103 % of control and 109 % of control | dose: 0.25 mg/kg/injection, schedule: Q01DX009 (ip), vehicle: saline 101 % of control and 109 % of control | dose: 0.5 mg/kg/injection, schedule: Q01DX009 (ip), vehicle: Klucel (hydroxypropylcellulose) (HPC) 100 % of control and 101 % of control and 106 % of control | dose: 0.5 mg/kg/injection, schedule: Q01DX009 (ip), vehicle: saline 104 % of control and 111 % of control | dose: 1.0 mg/kg/injection, schedule: Q01DX009 (ip), vehicle: Klucel (hydroxypropylcellulose) (HPC) 95 % of control and 101 % of control and 106 % of control | dose: 1.0 mg/kg/injection, schedule: Q01DX009 (ip), vehicle: saline 97 % of control and 103 % of control | dose: 2.0 mg/kg/injection, schedule: Q01DX009 (ip), vehicle: Klucel (hydroxypropylcellulose) (HPC) 89 % of control | dose: 2.0 mg/kg/injection, schedule: Q01DX009 (ip), vehicle: saline 109 % of control and 111 % of control

C[n+]1c2ccccc2nc2c(N)cc(N)cc21
inactive: dose: 4.0 mg/kg/injection, schedule: Q01DX005 (ip), vehicle: suspension in saline 114 % of control and 97 % of control | dose: 8.0 mg/kg/injection, schedule: Q01DX005 (ip), vehicle: suspension in saline 94 % of control and 103 % of control | dose: 16.0 mg/kg/injection, schedule: Q01DX005 (ip), vehicle: suspension in saline 104 % of control and 106 % of control | dose: 32.0 mg/kg/injection, schedule: Q01DX005 (ip), vehicle: suspension in saline 102 % of control and 108 % of control

O=C1N(Cl)C(=O)C(c2ccc(Cl)cc2)(c2ccc(Cl)cc2)N1Cl
inactive: [1] 94 % of control | [2] 105 % of control | dose: 200.0 mg/kg/injection, schedule: Q01DX009 (ip), vehicle: saline with Tween-80 94 % of control

COCC(O)Cn1ccnc1[N+](=O)[O-] (stereo unspecified)
inactive: dose: 32.0 mg/kg/injection, schedule: Q01DX009 (ip), vehicle: Klucel (hydroxypropylcellulose) (HPC) 113 % of control | dose: 64.0 mg/kg/injection, schedule: Q01DX009 (ip), vehicle: Klucel (hydroxypropylcellulose) (HPC) 102 % of control | dose: 128.0 mg/kg/injection, schedule: Q01DX009 (ip), vehicle: Klucel (hydroxypropylcellulose) (HPC) 96 % of control | dose: 256.0 mg/kg/injection, schedule: Q01DX009 (ip), vehicle: Klucel (hydroxypropylcellulose) (HPC) 102 % of control | dose: 512.0 mg/kg/injection, schedule: Q01DX009 (ip), vehicle: Klucel (hydroxypropylcellulose) (HPC) 102 % of control

CC(=O)NNC(=O)c1ccccn1
inactive: dose: 100.0 mg/kg/injection, schedule: Q01DX005 (ip), vehicle: Klucel (hydroxypropylcellulose) (HPC) 116 % of control and 100 % of control | dose: 200.0 mg/kg/injection, schedule: Q01DX005 (ip), vehicle: Klucel (hydroxypropylcellulose) (HPC) 113 % of control and 100 % of control

COc1cccc2c1C(=O)c1c(O)c3c(c(O)c1C2=O)C[C@@](O)(C(=O)CO)C[C@@H]3OC1CC(N)C(O)C(C)O1 (stereo partly specified)
inactive: dose: 0.5 mg/kg/injection, schedule: Q01DX001 (ip), vehicle: saline 89 % of control | dose: 1.0 mg/kg/injection, schedule: Q01DX001 (ip), vehicle: saline 98 % of control | dose: 2.0 mg/kg/injection, schedule: Q01DX001 (ip), vehicle: saline 94 % of control | dose: 4.0 mg/kg/injection, schedule: Q01DX001 (ip), vehicle: saline 90 % of control | dose: 8.0 mg/kg/injection, schedule: Q01DX001 (ip), vehicle: saline 80 % of control | dose: 16.0 mg/kg/injection, schedule: Q01DX001 (ip), vehicle: saline 91 % of control

CC1(C)N=C(N)N=C(N)N1c1ccc(CCC(=O)Nc2ccc(S(=O)(=O)F)cc2)cc1
inactive: dose: 50.0 mg/kg/injection, schedule: Q01DX009 (ip), vehicle: saline 111 % of control | dose: 100.0 mg/kg/injection, schedule: Q01DX009 (ip), vehicle: saline 100 % of control

[N-]=[N+]=CC(=O)CCC(N)C(=O)O (stereo unspecified)
inactive: dose: 0.05 mg/kg/injection, schedule: Q01DX009 (ip), vehicle: saline 107 % of control | dose: 0.2 mg/kg/injection, schedule: Q01DX009 (ip), vehicle: saline 105 % of control | dose: 0.4 mg/kg/injection, schedule: Q01DX009 (ip), vehicle: saline 103 % of control

CC1(C)N=C(N)N=C(N)N1c1ccc(OCCOc2ccc(S(=O)(=O)F)cc2)c(Cl)c1
inactive: [3] 116 % of control | [4] 100 % of control | dose: 50.0 mg/kg/injection, schedule: Q04DX003 (ip), vehicle: saline 94 % of control

CC(=O)O[C@H]1C(=O)[C@@]2(C)[C@H]([C@H](OC(=O)c3ccccc3)[C@]3(O)C[C@H](OC(=O)[C@H](O)[C@@H](NC(=O)c4ccccc4)c4ccccc4)C(C)=C1C3(C)C)[C@]1(OC(C)=O)CO[C@@H]1C[C@@H]2O
inactive: dose: 2.5 mg/kg/injection, schedule: Q01DX009 (ip), vehicle: Klucel (hydroxypropylcellulose) (HPC) 100 % of control | dose: 5.0 mg/kg/injection, schedule: Q01DX009 (ip), vehicle: Klucel (hydroxypropylcellulose) (HPC) 103 % of control | dose: 10.0 mg/kg/injection, schedule: Q01DX009 (ip), vehicle: Klucel (hydroxypropylcellulose) (HPC) 96 % of control | dose: 20.0 mg/kg/injection, schedule: Q01DX009 (ip), vehicle: Klucel (hydroxypropylcellulose) (HPC) 86 % of control

CC[C@]1(O)C[C@H]2CN(CCc3c([nH]c4ccccc34)[C@@](C(=O)OC)(c3cc4c(cc3OC)N(C=O)[C@H]3[C@@](O)(C(=O)OC)[C@H](OC(C)=O)[C@]5(CC)C=CCN6CC[C@]43[C@@H]65)C2)C1
inactive: dose: 0.2 mg/kg/injection, schedule: Q04DX003 (ip), vehicle: water 111 % of control | dose: 0.4 mg/kg/injection, schedule: Q04DX003 (ip), vehicle: water 106 % of control | dose: 0.8 mg/kg/injection, schedule: Q04DX003 (ip), vehicle: water 116 % of control | dose: 1.6 mg/kg/injection, schedule: Q04DX003 (ip), vehicle: water 109 % of control | dose: 3.2 mg/kg/injection, schedule: Q04DX003 (ip), vehicle: water 106 % of control
